Data taken from PMC12731536, “Sc(III) Complexes of Pyclen Derivative Ligands as Probes for Hypoxia: Synthesis, Chemical Characterization, ^44Sc‐Radiolabeling, and Preclinical Assessment” (Chemistry (Weinheim an Der Bergstrasse, Germany), 2025).
Read-outs that look alike come from different tables or passages of the source.

Assays:
[1] = tested on: B16‐F10 tumor‐bearing C57BL/6 mice; assay: In vivo PET studies (MiniPET‐II); settings: n = 5
Source text: The B16‐F10 mouse melanoma cell line (MC1‐R positive) was the kind gift of the Department of Immunology, Faculty of Medicine, University of Debrecen (Debrecen, Hungary). The cells were routinely cultivated according to the manufacturer's protocols using Dulbecco's Modified Eagle's medium (DMEM, Merck Life Science Ltd., Budapest, Hungary) supplemented with 1% (v/v) MEM Non‐Essential Amino Acid solution (Merck Life Science Ltd.), 1% MEM Vitamins solution (Merck Life Science Ltd.), 10% Fetal Bovine Serum (FBS, GIBCO Life Technologies, Billings, MT, USA), and 1% Antibiotic and Antimicotic solution (Merck Life Science Ltd.) at 37 °C in a humidified atmosphere containing 5% CO2. For tumor induction the cells were used at 85% confluence. Cell viability was determined by applying trypan blue exclusion assay. Those cells were used for subsequent experiments where the staining confirmed that more than 90% of them were viable.
(§1) All animal experiments confirmed to all applicable sections of the Hungarian Laws and the directions and regulations of the European Union, and the in vivo studies have been ethically approved by the Ethics Committee for Animal Experimentation of the University of Debrecen (license number: 16/2020/DEMÁB). C57BL/6 male mice (n = 32, older than 12 weeks, approx. 20 grams) obtained from Charles River Animalab Ltd. (Budapest, Hungary) were used for in vivo PET studies and biodistribution assays. To induce tumor models, 20 mice were subcutaneously transplanted with approximately 3x10^6 tumor cells (in 100 µL physiological saline) at the left shoulder area. Tumor growth was regularly monitored by using caliper measurements. During tumor generation inhalation anesthesia was induced using 3% isoflurane (Forane, AbbVie, Chicago, IL, USA), 0.4 L/min O2, and 0.8 L/min N2O.
Preclinical PET studies were performed on the MiniPET‐II scanner of the Department of Nuclear Medicine and Translational Imaging, Institute of Medical Imaging, Faculty of Medicine, University of Debrecen (Debrecen, Hungary). Fourteen days post tumor induction, tumor‐bearing mice (n = 20) were anesthetized (see above) and tail vein injected with approximately 5–7 MBq of [^44Sc][Sc(PC2AM‐NI)]^+ or [^44Sc][Sc(PC2A‐Ph‐NI)]^+. After a 90 ‐ and a 240‐minutes awake incubation period, the mice were re‐anesthetized and 20‐minutes static PET scans were taken. To quantify radiopharmaceutical uptake, followed by image reconstruction (3D ordered‐subsets expectation‐maximization algorithm (3D‐OSEM)), volumes of interest (VOIs) were manually outlined on the tumors and on the hindlimb muscle tissue as a reference region. Using a dedicated imaging analysis software: BrainCAD image analysis software (version: 1.12‐bulid3), mean standardized uptake values (SUVmean) were determined with the following equation: SUV = [VOI activity (Bq/mL)]/[injected activity (Bq)/animal weight (g)]. To assess image contrast, tumor‐to‐off‐target ratios (tumor‐to‐muscle ratio/T/M) were also calculated.

[2] = tested on: healthy control and B16‐F10 melanoma cell‐bearing mice; assay: Ex vivo biodistribution studies; assay type: in vivo; settings: for B16‐F10 tumor uptake: 14 days after cancer cell inoculation, n = 5 tumor‐bearing mice
Source text: as §1
To evaluate the organ distribution of the novel ^44Sc‐labeled radiotracers, ex vivo biodistribution experiments were additionally performed. Healthy control and tumor‐bearing mice were administered with approximately 5–7 MBq of [^44Sc][Sc(PC2AM‐NI)]^+ or [^44Sc][Sc(PC2A‐Ph‐NI)]^+ and at 90 ‐ and 240‐minutes post injection, all of them were put to death. Organs and tissues of interest were collected, weighed wet, and γ‐counted (Perkin‐Elmer Packard 406 Cobra, Waltham, MA, USA). After decay correction, the radioactivity of each tissue and organ was calculated as %ID/g.

[3] = I = 0.15 M NaCl, T = 25 °C; cited from earlier work
[4] = pH‐potentiometric determination of ligand protonation constants; assay type: physicochemical; settings: I = 0.15 M NaCl, T = 25 °C
Description: The equilibrium study of the PC2AM^nBu ligand has been started by determining the protonation constants in 0.15 M and 1.00 M NaCl ionic strength. (As the stability of the Sc(III) complex was determined in 1.00 M ionic strength, we had to perform the pH‐potentiometric titration of ligands using 1.00 M ionic strengths also.) The results of pH‐potentiometric measurement are shown in Table 1, where the corresponding data for 3,9‐PC2A,^[ [42] ^] PCTA ^[ [46] ^] and PC2AM‐NI ligands determined under identical conditions are also presented. Knowledge of the protonation constants defined by Eqn. 1 and 2 are essential for the calculation of the stability constants of the Sc(III) complexes:
(1) PC2AM^nBu^2−+nH^+⇌Hn(PC2AM^nBu)^−2+n (2) βn=HnPC2AM^nBu^−2+n/PC2AM^nBu^2−H^+^n
The protonation constants of the ligands, as well as the concentrations of the ligand stock solutions, were determined by pH‐potentiometric method using a Metrohm 785 DMP Titrino automatic titrator using a Metrohm 6.00234.100 combined glass electrode. The titrations were carried out in the pH range 1.75–11.80 and the pH electrode was calibrated by a two‐point calibration routine with the use of 0.05 M KH‐phthalate (pH = 4.005) and 0.01 M borax (pH = 9.177 buffers. The samples were stirred at 25 °C (±0.1 °C) and N2 gas bubbled into the system to ensure inert conditions and to eliminate the effect of the presence of CO2. For the calculation of [H^+] from the measured pH values, the method proposed by Irving et al. was applied.^[ [61] ^] For this, a 0.01 M HCl solution was titrated with the standardized NaOH solution in the presence of 0.15 M NaCl ionic strength at 25 °C. The differences between the measured (pHread) and calculated pH (‐log[H^+]) values were used to obtain the equilibrium H^+ concentration from the pHmeas values during the titrations. By fitting the resulting titration curves (pH – V (NaOH) data pairs) with the PSEQUAD program, the protonation constants of the ligands were determined.^[ [47] ^] The titration of the [Sc(PC2AM^nBu)]^+ with NaOH was performed with the same method by applying very similar conditions.

Structure (SMILES): O=C([O-])CN1CCN(CC(=O)NCCCCCCn2ccnc2[N+](=O)[O-])CCN(CC(=O)[O-])Cc2cccc(n2)C1.[44Sc+3] [[^44Sc][Sc(PC2AM‐NI)]^+]
- B16‐F10 SUVmean ([1]; 90 minutes post injection): 0.08 ± 0.02
- T/M ratio (tumor‐to‐muscle) ([1]; 90 minutes post injection): 4.04 ± 0.02
- muscle SUVmean ([1]; 90 minutes post injection): 0.02 ± 0.01
- B16‐F10 SUVmean ([1]; 240 minutes post injection): 0.04 ± 0.02
- T/M ratio (tumor‐to‐muscle) ([1]; 240 minutes post injection): 4.02 ± 0.02
- muscle SUVmean ([1]; 240 minutes post injection): 0.01 ± 0.01
- Blood uptake ([2]; 90 minutes post injection): 0.09 ± 0.02 %ID/g
- Bone uptake ([2]; 90 minutes post injection): 0.02 ± 0.00 %ID/g
- Brain uptake ([2]; 90 minutes post injection): 0.01 ± 0.01 %ID/g
- Fat uptake ([2]; 90 minutes post injection): 0.05 ± 0.02 %ID/g
- Heart uptake ([2]; 90 minutes post injection): 0.04 ± 0.01 %ID/g
- Kidney uptake ([2]; 90 minutes post injection): 0.83 ± 0.29 %ID/g
- Liver uptake ([2]; 90 minutes post injection): 1.55 ± 1.66 %ID/g
- Lung uptake ([2]; 90 minutes post injection): 0.10 ± 0.02 %ID/g
- Muscle uptake ([2]; 90 minutes post injection): 0.02 ± 0.00 %ID/g
- Pancreas uptake ([2]; 90 minutes post injection): 0.04 ± 0.02 %ID/g
- Spleen uptake ([2]; 90 minutes post injection): 0.07 ± 0.02 %ID/g
- Stomach uptake ([2]; 90 minutes post injection): 0.09 ± 0.02 %ID/g
- Urine activity ([2]; 90 minutes post injection): 77.19 ± 37.26 %ID/g
- gall bladder uptake ([2]; 90 minutes post injection): 42.46 ± 33.31 %ID/g
- large intestines uptake ([2]; 90 minutes post injection): 0.10 ± 0.07 %ID/g
- salivary gland uptake ([2]; 90 minutes post injection): 0.03 ± 0.00 %ID/g
- small intestines uptake ([2]; 90 minutes post injection): 0.92 ± 0.33 %ID/g
- B16‐F10 tumor uptake ([2]; 90 minutes post injection): 0.27 ± 0.07 %ID/g
- Blood uptake ([2]; 240 minutes post injection): 0.02 ± 0.01 %ID/g
- Bone uptake ([2]; 240 minutes post injection): 0.01 ± 0.00 %ID/g
- Brain uptake ([2]; 240 minutes post injection): 0.01 ± 0.00 %ID/g
- Fat uptake ([2]; 240 minutes post injection): 0.01 ± 0.00 %ID/g
- Heart uptake ([2]; 240 minutes post injection): 0.01 ± 0.00 %ID/g
- Kidney uptake ([2]; 240 minutes post injection): 0.60 ± 0.37 %ID/g
- Liver uptake ([2]; 240 minutes post injection): 0.90 ± 1.01 %ID/g
- Lung uptake ([2]; 240 minutes post injection): 0.03 ± 0.01 %ID/g
- Pancreas uptake ([2]; 240 minutes post injection): 0.01 ± 0.00 %ID/g
- Spleen uptake ([2]; 240 minutes post injection): 0.03 ± 0.02 %ID/g
- Stomach uptake ([2]; 240 minutes post injection): 0.04 ± 0.03 %ID/g
- Urine activity ([2]; 240 minutes post injection): 5.44 ± 1.23 %ID/g
- gall bladder uptake ([2]; 240 minutes post injection): 15.82 ± 13.89 %ID/g
- large intestines uptake ([2]; 240 minutes post injection): 0.12 ± 0.12 %ID/g
- salivary gland uptake ([2]; 240 minutes post injection): 0.01 ± 0.01 %ID/g
- small intestines uptake ([2]; 240 minutes post injection): 0.20 ± 0.10 %ID/g
- B16‐F10 tumor uptake ([2]; 240 minutes post injection): 0.17 ± 0.07 %ID/g

Structure (SMILES): O=C(O)CN1CCNCCN(CC(=O)O)Cc2cccc(n2)C1 [3,9‐PC2A]
- log K 1 ^H [3]: 12.25
- log K 2 ^H [3]: 5.97
- log K 3 ^H [3]: 3.47
- log K 4 ^H [3]: 1.99
- log β 2 ^H [3]: 18.22

Structure (SMILES): O=C(O)CN1CCN(CC(=O)NCCCCCCn2ccnc2[N+](=O)[O-])CCN(CC(=O)O)Cc2cccc(n2)C1 [PC2AM‐NI]
- log K 1 ^H [4]: 8.60(3)
- log K 2 ^H [4]: 7.39(3)
- log K 3 ^H [4]: 2.28(3)
- log K 4 ^H [4]: 1.58(3)
- log β 2 ^H [4]: 15.99
